# From the supplement of paper PMC10307832
# Columns and labels:
# Assay in all cases: relative viability (nuclei count vs DMSO), 5 days (fraction); higher = more cells survive
# [1] = compound: CC1=C(C(=NN1)C)CC2=C(C3=C(S2)N(C(=O)N(C3=O)C)CC(C)C)C(=O)N4C[C@@H](CO4)O + NC(=O)Nc1cc(-c2cccc(F)c2)sc1C(=O)N[C@H]1CCCNC1 [AZD7762] (partner 0.2 µM)
# How it was run: (§1)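 The day after seeding in 1536-well plates, lung cancer cell lines were treated by pin tool with a single drug, or with a fixed anchor-drug dose together with five library-drug doses (not always all listed) in √10 steps. After 5 days, a combined fix-and-stain solution (final 0.05% Triton X-100, 1% formaldehyde, 1 ug/ml Hoechst) was added. Nuclei counted on 4× images gave relative viability as treated counts over vehicle counts, reported as the median of duplicate plates.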
# [2] = compound: CC1=C(C(=NN1)C)CC2=C(C3=C(S2)N(C(=O)N(C3=O)C)CC(C)C)C(=O)N4C[C@@H](CO4)O + Cc1cc(Nc2cc(N3CCN(C)CC3)nc(Sc3ccc(NC(=O)C4CC4)cc3)n2)n[nH]1 [Tozasertib] (partner 0.1 µM)
# How it was run: as §1
# [3] = compound: CC1=C(C(=NN1)C)CC2=C(C3=C(S2)N(C(=O)N(C3=O)C)CC(C)C)C(=O)N4C[C@@H](CO4)O + Nc1nc2[nH]cc(CCc3ccc(C(=O)N[C@@H](CCC(=O)O)C(=O)O)cc3)c2c(=O)[nH]1 [Pemetrexed] (partner 0.2 µM)
# How it was run: as §1
# IDH-C35 + Phenformin = compound: Cc1ccccc1C(C(=O)NC1CCCCC1)N(C(=O)Cn1ccnc1C)c1cccc(F)c1 [IDH-C35] + N=C(N)NC(=N)NCCc1ccccc1 [Phenformin] (partner 250 µM)
# How it was run: as §1
Cell Line,relative viability ([1]; first compound 0.0025 µM),relative viability ([1]; first compound 0.007906 µM),relative viability ([1]; first compound 0.025 µM),relative viability ([1]; first compound 0.07906 µM),relative viability ([1]; first compound 0.25 µM),relative viability ([2]; first compound 0.0025 µM),relative viability ([2]; first compound 0.007906 µM),relative viability ([2]; first compound 0.025 µM),relative viability ([2]; first compound 0.07906 µM),relative viability ([2]; first compound 0.25 µM),relative viability ([3]; first compound 0.0025 µM),relative viability ([3]; first compound 0.007906 µM),relative viability ([3]; first compound 0.025 µM),relative viability ([3]; first compound 0.07906 µM),relative viability ([3]; first compound 0.25 µM),relative viability (IDH-C35 + Phenformin; first compound 0.08 µM),relative viability (IDH-C35 + Phenformin; first compound 0.253 µM),relative viability (IDH-C35 + Phenformin; first compound 0.8 µM),relative viability (IDH-C35 + Phenformin; first compound 2.53 µM),relative viability (IDH-C35 + Phenformin; first compound 8 µM)
201T,0.67,0.673,0.573,0.586,0.677,1.05,0.92,0.915,0.904,1.03,0.311,0.342,0.322,0.309,0.32,0.469,0.431,0.436,0.466,0.438
A549,,,,,,,,,,,,,,,,0.188,0.189,0.151,,0.19
A-427,0.73,0.691,0.752,0.847,0.677,0.189,0.188,0.215,0.227,0.237,1,1.07,0.935,0.906,0.983,0.359,0.3,0.338,0.314,0.312
ABC-1,0.777,0.631,0.732,0.878,0.841,0.197,0.196,0.216,0.19,0.255,,,,,,0.261,0.218,0.247,0.235,0.23
BEN,0.637,0.631,0.599,0.51,0.646,0.495,0.563,0.586,0.457,0.52,0.697,0.836,0.558,0.665,0.687,0.292,0.246,0.257,0.279,0.282
CAL-12T,0.632,0.578,0.647,0.6,0.566,0.334,0.315,0.366,0.332,0.304,1.28,1.36,0.956,1.08,1.38,0.546,0.618,0.556,0.589,0.498
COR-L23,,,,,,0.155,0.163,0.172,0.18,0.163,0.22,0.214,0.195,0.223,0.204,0.478,0.42,0.423,0.421,0.382
COR-L 105,,,,,,0.343,0.355,0.369,0.27,0.328,1.27,1.15,1.06,1.24,1.35,0.479,0.479,0.555,0.484,0.457
ChaGo-K-1,0.938,0.919,0.855,0.823,0.889,0.232,0.214,0.235,0.206,0.228,0.26,0.261,0.261,0.254,0.249,0.482,0.473,0.511,0.465,0.531
EKVX,0.803,0.721,0.761,0.517,0.725,0.398,0.404,0.432,0.394,0.422,0.365,0.429,0.412,0.293,0.422,0.245,0.219,0.227,0.229,0.189
EMC-BAC-2,1.21,1.2,1.07,1.19,1.01,0.268,0.296,0.272,0.3,0.317,0.46,0.468,0.415,0.44,0.454,0.5,0.584,0.583,0.508,0.493
EPLC-272H,0.252,0.21,0.225,0.144,0.231,0.267,0.227,0.324,0.259,0.609,0.356,0.333,0.41,0.301,0.348,0.33,0.275,0.314,0.294,0.296
H3255,0.929,0.927,0.755,0.85,0.936,0.803,0.768,0.657,0.56,0.59,0.632,0.576,0.496,0.618,0.563,0.381,0.38,0.365,0.363,0.344
HARA,0.281,0.288,0.324,0.297,0.218,0.129,0.125,0.105,0.111,0.112,0.218,0.215,0.262,0.273,0.255,0.522,0.461,0.435,,0.386
HCC-15,1.34,1.37,1.13,1.17,1.29,0.458,0.519,0.435,0.469,0.448,0.214,0.214,0.225,0.215,0.211,0.521,0.464,0.501,,0.45
HCC-44,1,0.984,0.98,1.06,1.07,0.888,0.746,0.915,0.882,1.13,0.633,0.643,0.675,0.599,0.694,0.227,0.293,0.254,0.166,0.182
HCC-78,0.538,0.588,0.555,0.529,0.673,0.415,0.406,0.544,0.453,0.284,0.904,0.887,0.897,0.951,0.925,0.608,0.682,0.644,0.798,0.745
